Experiments:
Assay in all cases: relative viability vs DMSO control (72 h) (fraction); higher = more viable cells
[1] = tested on: SW1353
How it was run: (§1)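 Sarcoma cell lines were seeded in 384-well plates at densities set to reach 80–90% confluence. After 24 h, 2.5 µl of serially diluted compound was added (source plates 10 mM to 0.0002 mM), and plates were held 72 h at 37 °C, 5% CO2, with 0.1% DMSO vehicle and a 5 µM positive control. Relative viability came from ATPLite readings as percent growth, averaged over up to triplicate wells. Data were rescaled so full viability equals 1 and none equals 0.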

[2] = tested on: KHOS-NP
How it was run: as §1

[3] = tested on: A204
How it was run: as §1

[4] = tested on: HT1080
How it was run: as §1

[5] = tested on: SK-ES-1
How it was run: as §1

[6] = tested on: SW982
How it was run: as §1

[7] = tested on: KHOS-240S
How it was run: as §1

[8] = tested on: RD-ES
How it was run: as §1

[9] = tested on: SW684
How it was run: as §1

[10] = tested on: SYO-1
How it was run: as §1

[11] = tested on: G401
How it was run: as §1

[12] = tested on: SW872
How it was run: as §1

Cc1nc(Nc2ncc(C(=O)Nc3c(C)cccc3Cl)s2)cc(N2CCN(CCO)CC2)n1 [Dasatinib]
Settings | relative viability
[1], 0.00017 µM | 0.979
[1], 0.00051 µM | 0.982
[1], 0.00152 µM | 0.996
[1], 0.00457 µM | 0.956
[1], 0.01372 µM | 0.888
[1], 0.04115 µM | 0.704
[1], 0.1235 µM | 0.59
[1], 0.3704 µM | 0.46
[1], 1.111 µM | 0.4271
[1], 3.333 µM | 0.411
[1], 10 µM | 0.372
[2], 0.00017 µM | 1.023
[2], 0.00051 µM | 1.03
[2], 0.00152 µM | 1
[2], 0.00457 µM | 0.993
[2], 0.01372 µM | 0.923
[2], 0.04115 µM | 0.872
[2], 0.1235 µM | 0.721
[2], 0.3704 µM | 0.525
[2], 1.111 µM | 0.436
[2], 3.333 µM | 0.327
[2], 10 µM | 0.237
[3], 0.00017 µM | 1.08
[3], 0.00051 µM | 1.04
[3], 0.00152 µM | 1.06
[3], 0.00457 µM | 1.02
[3], 0.01372 µM | 0.83
[3], 0.04115 µM | 0.501
[3], 0.1235 µM | 0.376
[3], 0.3704 µM | 0.356
[3], 1.111 µM | 0.356
[3], 3.333 µM | 0.314
[3], 10 µM | 0.281
[4], 0.00017 µM | 1.03
[4], 0.00051 µM | 1.05
[4], 0.00152 µM | 1.04
[4], 0.00457 µM | 1.01
[4], 0.01372 µM | 1.02
[4], 0.04115 µM | 0.989
[4], 0.1235 µM | 0.924
[4], 0.3704 µM | 0.895
[4], 1.111 µM | 0.907
[4], 3.333 µM | 0.873
[4], 10 µM | 0.535
[5], 0.00017 µM | 1.04
[5], 0.00051 µM | 1.03
[5], 0.00152 µM | 1.038
[5], 0.00457 µM | 1.05
[5], 0.01372 µM | 1.02
[5], 0.04115 µM | 0.975
[5], 0.1235 µM | 0.993
[5], 0.3704 µM | 0.934
[5], 1.111 µM | 0.896
[5], 3.333 µM | 0.673
[5], 10 µM | 0.402
[6], 0.00017 µM | 1.05
[6], 0.00051 µM | 1.04
[6], 0.00152 µM | 1.04
[6], 0.00457 µM | 0.99
[6], 0.01372 µM | 0.854
[6], 0.04115 µM | 0.641
[6], 0.1235 µM | 0.389
[6], 0.3704 µM | 0.277
[6], 1.111 µM | 0.259
[6], 3.333 µM | 0.258
[6], 10 µM | 0.218
[7], 0.00017 µM | 1.06
[7], 0.00051 µM | 1.04
[7], 0.00152 µM | 1.01
[7], 0.00457 µM | 0.957
[7], 0.01372 µM | 0.816
[7], 0.04115 µM | 0.708
[7], 0.1235 µM | 0.494
[7], 0.3704 µM | 0.337
[7], 1.111 µM | 0.279
[7], 3.333 µM | 0.25
[7], 10 µM | 0.198
[8], 0.00017 µM | 0.989
[8], 0.00051 µM | 0.966
[8], 0.00152 µM | 0.966
[8], 0.00457 µM | 0.962
[8], 0.01372 µM | 0.958
[8], 0.04115 µM | 0.949
[8], 0.1235 µM | 0.9274
[8], 0.3704 µM | 0.918
[8], 1.111 µM | 0.92
[8], 3.333 µM | 0.759
[8], 10 µM | 0.483
[9], 0.00017 µM | 1.166
[9], 0.00051 µM | 1.15
[9], 0.00152 µM | 1.18
[9], 0.00457 µM | 1.18
[9], 0.01372 µM | 1.15
[9], 0.04115 µM | 1
[9], 0.1235 µM | 0.739
[9], 0.3704 µM | 0.625
[9], 1.111 µM | 0.6057
[9], 3.333 µM | 0.619
[9], 10 µM | 0.457
[10], 0.00017 µM | 0.917
[10], 0.00051 µM | 0.923
[10], 0.00152 µM | 0.91
[10], 0.00457 µM | 0.865
[10], 0.01372 µM | 0.779
[10], 0.04115 µM | 0.704
[10], 0.1235 µM | 0.645
[10], 0.3704 µM | 0.573
[10], 1.111 µM | 0.528
[10], 3.333 µM | 0.415
[10], 10 µM | 0.188
[11], 0.00017 µM | 1
[11], 0.00051 µM | 0.996
[11], 0.00152 µM | 1.015
[11], 0.00457 µM | 1
[11], 0.01372 µM | 0.959
[11], 0.04115 µM | 0.876
[11], 0.1235 µM | 0.833
[11], 0.3704 µM | 0.789
[11], 1.111 µM | 0.7831
[11], 3.333 µM | 0.69
[11], 10 µM | 0.391
[12], 0.00017 µM | 1.03
[12], 0.00051 µM | 1.02
[12], 0.00152 µM | 1.01
[12], 0.00457 µM | 0.957
[12], 0.01372 µM | 0.86
[12], 0.04115 µM | 0.779
[12], 0.1235 µM | 0.639
[12], 0.3704 µM | 0.551
[12], 1.111 µM | 0.521
[12], 3.333 µM | 0.481
[12], 10 µM | 0.359

Source: the supplement of paper PMC10883282
